In this assay the target is human F508del-CFTR (Homo sapiens, UniProt P13569, DEL508-508). Nature of the assay: F508del-CFTR cell surface expression (corrector activity), DiscoveRx ß-galactosidase complementation chemiluminescence assay in recombinant U2OS cell line.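 As to all read-outs here: U2OS cells co-expressing ProLink-tagged F508del-CFTR and a membrane-anchored enzyme acceptor, where more surface CFTR restores β-galactosidase activity measured by chemiluminescence.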 Particulars: U2OS cells, 16h compound incubation; for EC50: EC50, F508del-CFTR cell surface expression, geomean of several measurements; for Emax: U2OS, in relation to the Emax of the corrector lumacaftor (=100%), arithmetic mean.
Chain of human F508del-CFTR (P13569 with tags, fused parts or gaps DEL508-508): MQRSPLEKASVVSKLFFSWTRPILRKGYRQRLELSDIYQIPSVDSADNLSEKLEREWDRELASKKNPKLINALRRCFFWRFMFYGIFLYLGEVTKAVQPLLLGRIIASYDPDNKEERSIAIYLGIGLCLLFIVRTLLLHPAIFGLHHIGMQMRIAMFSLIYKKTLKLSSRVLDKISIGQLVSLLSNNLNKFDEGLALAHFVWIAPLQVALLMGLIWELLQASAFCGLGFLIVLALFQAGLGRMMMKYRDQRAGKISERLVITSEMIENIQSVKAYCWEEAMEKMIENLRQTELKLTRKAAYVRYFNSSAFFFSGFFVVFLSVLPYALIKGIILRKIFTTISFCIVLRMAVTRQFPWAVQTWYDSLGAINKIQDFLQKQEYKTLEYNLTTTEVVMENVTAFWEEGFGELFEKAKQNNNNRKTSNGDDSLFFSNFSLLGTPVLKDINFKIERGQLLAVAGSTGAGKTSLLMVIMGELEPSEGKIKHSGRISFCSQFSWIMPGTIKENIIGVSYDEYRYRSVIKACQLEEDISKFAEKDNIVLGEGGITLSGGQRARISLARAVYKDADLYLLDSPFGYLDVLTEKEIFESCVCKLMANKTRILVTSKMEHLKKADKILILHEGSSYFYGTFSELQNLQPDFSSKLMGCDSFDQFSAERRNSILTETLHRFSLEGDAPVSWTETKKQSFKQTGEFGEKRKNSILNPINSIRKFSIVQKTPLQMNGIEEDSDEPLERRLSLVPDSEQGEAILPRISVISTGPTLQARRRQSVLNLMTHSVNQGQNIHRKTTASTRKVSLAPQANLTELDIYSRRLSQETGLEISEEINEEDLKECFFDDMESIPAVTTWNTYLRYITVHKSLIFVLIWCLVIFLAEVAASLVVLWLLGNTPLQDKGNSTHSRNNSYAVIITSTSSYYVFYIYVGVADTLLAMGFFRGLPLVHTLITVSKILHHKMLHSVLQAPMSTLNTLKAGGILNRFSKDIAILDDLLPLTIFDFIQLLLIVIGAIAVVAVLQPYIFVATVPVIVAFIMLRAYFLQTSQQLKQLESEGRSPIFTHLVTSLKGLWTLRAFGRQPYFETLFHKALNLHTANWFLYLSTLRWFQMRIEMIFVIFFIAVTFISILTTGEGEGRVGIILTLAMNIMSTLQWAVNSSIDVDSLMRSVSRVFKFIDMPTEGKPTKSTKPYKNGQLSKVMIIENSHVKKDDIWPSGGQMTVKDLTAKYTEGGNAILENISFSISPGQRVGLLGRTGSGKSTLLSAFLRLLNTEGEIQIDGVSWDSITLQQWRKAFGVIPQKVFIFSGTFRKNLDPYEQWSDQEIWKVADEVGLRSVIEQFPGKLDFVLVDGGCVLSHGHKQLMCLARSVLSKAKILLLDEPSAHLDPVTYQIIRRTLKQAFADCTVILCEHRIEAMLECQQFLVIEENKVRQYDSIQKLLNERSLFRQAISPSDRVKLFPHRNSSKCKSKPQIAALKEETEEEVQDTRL

The structures appear in SMILES notation.

Experimental: The method measures the effect of over-night compound incubation on F508del-CFTR cell surface expression in a recombinant U2OS cell line (DiscoveRx, #93-0987C3). This cell line is engineered to co-express (i) human F508del-CFTR tagged with a Prolink (PK=short ß-galactosidase fragment) and (ii) the remainder of the ß-galactosidase enzyme (Enzyme Acceptor; EA) localized to the plasma membrane. Incubation with compounds that increase PK-tagged F508del-CFTR at the plasma membrane will lead to complementation of the EA fragment to form a functional ß-galactosidase enzyme which is quantified by a chemiluminescence reaction.
The cells are incubated for 5h in the incubator before the addition of 5 μl/well of compound dilution series (5× working stocks in full medium). […] The cells are co-incubated with the compounds for 16h in the incubator at 37° C., 5% CO2. The next day, the cell plates are incubated for 2h at RT in the dark. […] Concentration-response curves are generated using compound-intrinsic maximal efficacy as upper plateau, and from these CRCs compound-intrinsic EC50 values are determined.
The calculated EC50 values may fluctuate depending on the daily assay performance. […] EC50 values from several measurements are given as geomean values. The calculated Emax values may fluctuate depending on the daily assay performance. […] Emax values from several measurements are given as arithmetic mean values.

In the case of `CC(C)C[C@H]1C(=O)N(C)[C@H](Cc2nc(C(F)(F)F)no2)C(=O)N[C@H](Cc2ccccc2)COc2ccc3ncc(F)cc3c2C(=O)N[C@H](C(=O)NCCCOC(F)(F)F)CC(=O)N1C` [Example 925, (3S,7S,10R,13R)-13-benzyl-20-fluoro-7-isobutyl-6,9-dimethyl-1,5,8,11-tetraoxo-N-(3-(trifluoromethoxy)propyl)-10-((3-(trifluoromethyl)-1,2,4-oxadiazol-5-yl)methyl)-1,2,3,4,5,6,7,8,9,10,11,12,13,14-tetradecahydro-[1]oxa[4,7,10,14]tetraazacycloheptadecino[16,17-f]quinoline-3-carboxamide], the EC50 was found to be 92 nM and the maximal response (Emax) came out at 286%.
In the case of `COc1cc(CCNC(=O)[C@@H]2CC(=O)N(C)[C@@H](CC(C)C)C(=O)N(C)[C@]3(C[C@H](OC)C3)C(=O)N[C@H](Cc3ccccc3)COc3ccc4ncc(F)cc4c3C(=O)N2)on1` [Example 926, (1r,3S,3′S,7′S,13′R)-13′-benzyl-20′-fluoro-7′-isobutyl-3-methoxy-N-(2-(3-methoxyisoxazol-5-yl)ethyl)-6′,9′-dimethyl-1′,5′,8′,11′-tetraoxo-2′,3′,4′,5′,6′,7′,8′,9′,11′,12′,13′,14′-dodecahydro-1′H-spiro[cyclobutane-1,10′-[1]oxa[4,7,10,14]tetraazacycloheptadecino[16,17-f]quinoline]-3′-carboxamide], the EC50 stood at 759 nM and the maximal effect (Emax) was 416%.
As to `COc1noc(CCNC(=O)[C@@H]2CC(=O)N(C)[C@@H](CC(C)C)C(=O)N(C)[C@H](Cc3nc(C(F)(F)F)no3)C(=O)N[C@H](Cc3ccccc3)COc3cc(C)c4ncccc4c3C(=O)N2)n1` [Example 927, (3S,7S,10R,13R)-13-benzyl-7-isobutyl-N-(2-(3-methoxy-1,2,4-oxadiazol-5-yl)ethyl)-6,9,17-trimethyl-1,5,8,11-tetraoxo-10-((3-(trifluoromethyl)-1,2,4-oxadiazol-5-yl)methyl)-1,2,3,4,5,6,7,8,9,10,11,12,13,14-tetradecahydro-[1]oxa[4,7,10,14]tetraazacycloheptadecino[16,17-f]quinoline-3-carboxamide], the 50% effective concentration (EC50) worked out at 27 nM and the maximal response (Emax) was 492%.
As for `Cc1cc2c(c3cccnc13)C(=O)N[C@H](C(=O)NCCn1nnc(C3CC3)n1)CC(=O)N(C)[C@@H](CC(C)C)C(=O)N1CCCCC1C(=O)N[C@H](Cc1ccccc1)CO2` (stereo partly drawn) [Example 928, (9S,13S,19aS,22R)-22-benzyl-N-(2-(5-cyclopropyl-2H-tetrazol-2-yl)ethyl)-13-isobutyl-2,12-dimethyl-7,11,14,20-tetraoxo-7,8,9,10,11,12,13,14,17,18,19,19a,20,21,22,23-hexadecahydro-16H-pyrido[2′,1′:6,7][1]oxa[4,7,10,14]tetraazacycloheptadecino[16,17-f]quinoline-9-carboxamide], the concentration giving a half-maximal response (EC50) turned out to be 971 nM and the Emax was determined as 247%.
`CCOCC[C@@H]1C(=O)N[C@H](Cc2ccccc2)COc2ccc3ncc(F)cc3c2C(=O)N[C@H](C(=O)NCCc2nc(OC)no2)CC(=O)N(C)[C@@H](CC(C)C)C(=O)N1C` [Example 929, (3S,7S,10R,13R)-13-benzyl-10-(2-ethoxyethyl)-20-fluoro-7-isobutyl-N-(2-(3-methoxy-1,2,4-oxadiazol-5-yl)ethyl)-6,9-dimethyl-1,5,8,11-tetraoxo-1,2,3,4,5,6,7,8,9,10,11,12,13,14-tetradecahydro-[1]oxa[4,7,10,14]tetraazacycloheptadecino[16,17-f]quinoline-3-carboxamide]: the EC50 came out at 306 nM and the Emax was determined as 513%.
For `COc1noc(CCNC(=O)[C@@H]2CC(=O)N(C)[C@@H](CC(C)C)C(=O)N3CCCC[C@@H]3C(=O)N[C@H](Cc3ccccc3)COc3cnc4ccc(F)cc4c3C(=O)N2)n1` [Example 930, (9S,13S,19aR,22R)-22-benzyl-5-fluoro-13-isobutyl-N-(2-(3-methoxy-1,2,4-oxadiazol-5-yl)ethyl)-12-methyl-7,11,14,20-tetraoxo-7,8,9,10,11,12,13,14,17,18,19,19a,20,21,22,23-hexadecahydro-16H-pyrido[2′,1′:6,7][1]oxa[4,7,10,14]tetraazacycloheptadecino[17,16-c]quinoline-9-carboxamide] the same measures were 142 nM and 460%.
For `COc1cc(CCNC(=O)[C@@H]2CC(=O)N(C)[C@@H](CC(C)C)C(=O)N(C)[C@H](CC(F)F)C(=O)N[C@H](Cc3ccccc3)COc3ccc4cnc(C)cc4c3C(=O)N2)on1` [Example 931, (3S,7S,10R,13R)-13-benzyl-10-(2,2-difluoroethyl)-7-isobutyl-N-(2-(3-methoxyisoxazol-5-yl)ethyl)-6,9,20-trimethyl-1,5,8,11-tetraoxo-1,2,3,4,5,6,7,8,9,10,11,12,13,14-tetradecahydro-[1]oxa[4,7,10,14]tetraazacycloheptadecino[16,17-f]isoquinoline-3-carboxamide], the EC50 worked out at 298 nM and the maximal effect (Emax) came out at 507%.
`COc1noc(CCNC(=O)[C@@H]2CC(=O)N(C)[C@@H](CC(C)C)C(=O)N(C)[C@H](CC(F)F)C(=O)N[C@H](Cc3ccccc3)COc3ccc4cnc(C)cc4c3C(=O)N2)n1` [Example 932, (3S,7S,10R,13R)-13-benzyl-10-(2,2-difluoroethyl)-7-isobutyl-N-(2-(3-methoxy-1,2,4-oxadiazol-5-yl)ethyl)-6,9,20-trimethyl-1,5,8,11-tetraoxo-1,2,3,4,5,6,7,8,9,10,11,12,13,14-tetradecahydro-[1]oxa[4,7,10,14]tetraazacycloheptadecino[16,17-f]isoquinoline-3-carboxamide]: the EC50 amounted to 373 nM and the Emax stood at 491%.
On to `Cc1cc2c3c(ccc2cn1)OC[C@@H](Cc1ccccc1)NC(=O)[C@@H](CC(F)F)N(C)C(=O)[C@H](CC(C)C)N(C)C(=O)C[C@@H](C(=O)NCCn1nnc(C2CC2)n1)NC3=O` [Example 933, (3S,7S,10R,13R)-13-benzyl-N-(2-(5-cyclopropyl-2H-tetrazol-2-yl)ethyl)-10-(2,2-difluoroethyl)-7-isobutyl-6,9,20-trimethyl-1,5,8,11-tetraoxo-1,2,3,4,5,6,7,8,9,10,11,12,13,14-tetradecahydro-[1]oxa[4,7,10,14]tetraazacycloheptadecino[16,17-f]isoquinoline-3-carboxamide], for which the half-maximal effective concentration (EC50) stood at 399 nM and the maximum response (Emax) was found to be 485%.
As for `COc1noc(CCNC(=O)[C@@H]2CC(=O)N(C)[C@@H](CC(C)C)C(=O)N(C)[C@H](Cc3nc(C(F)(F)F)no3)C(=O)N[C@H](Cc3ccccc3)COc3ccc4ncc(F)cc4c3C(=O)N2)n1` [Example 934, (3S,7S,10R,13R)-13-benzyl-20-fluoro-7-isobutyl-N-(2-(3-methoxy-1,2,4-oxadiazol-5-yl)ethyl)-6,9-dimethyl-1,5,8,11-tetraoxo-10-((3-(trifluoromethyl)-1,2,4-oxadiazol-5-yl)methyl)-1,2,3,4,5,6,7,8,9,10,11,12,13,14-tetradecahydro-[1]oxa[4,7,10,14]tetraazacycloheptadecino[16,17-f]quinoline-3-carboxamide], the EC50 came out at 37 nM and the Emax amounted to 528%.

A word on the EC50: it is the concentration giving half of the maximal effect. The term Emax denotes the size of the effect at its maximum, as opposed to the concentration needed.
